Assays:
[1] = Radioligand stability in mice (radio-HPLC of blood and urine); assay type: in vivo; conditions: mean ± SD
Procedure: The formation of radiometabolites which can be detected in the blood was tested in blood samples collected 5 min post-injection (pi) of each of the radioligands [^67Ga]Ga/[^111In]In/[^177Lu]Lu-GAS1/3 and [^67Ga]Ga/[^111In]In-GAS2. For this study, in-house male Swiss albino mice (body weight: 30 ± 5 g, provided by the NCSR “Demokritos” Animal House) were used in groups of three. The animals received, through the tail vein, a 100-μL bolus containing each radioligand tested (2.5–3 nmol of the total conjugate in vehicle: saline/EtOH 9/1 v/v, corresponding to: up to 11 MBq for In-111, up to 13 MBq for Ga-67 and up to 74 MBq for Lu-177). Mice were euthanized, and blood was collected directly from the heart using a prechilled penicillin syringe and transferred in a prechilled EDTA-containing Eppendorf Protein LoBind® tube on ice (40 µL, 50 mM Na2EDTA solution). After centrifugation (10 min, 2000× g/4 °C, in a Hettich, Universal 320R, centrifuge), the blood plasma was collected, mixed with chilled MeCN in a 1/1 v/v ratio and centrifuged again (10 min, 15,000× g/4 °C). Supernatants were collected and concentrated to a small volume (≈50–100 μL) under a gentle N2-flux at 40 °C. They were then diluted with physiological saline (≈400 μL) and filtered through a Millex GV filter (0.22 μm, 13 mm Ø, Millipore, Milford, CT, USA). Aliquots of the filtrate were analyzed by radio-RP-HPLC using a Waters Symmetry Shield RP18 cartridge column (5 μm, 3.9 mm × 20 mm) eluted at a flow rate of 1.0 mL/min with the following gradient: 100% A/0% B to 55% A/45% B in 45 min; A = 0.1% aqueous TFA (v/v) and B = MeCN (system 2). The elution time (tR) of each parent radioligand was determined by coinjection of blood samples with an aliquot of the labeling solution on the HPLC column. Results were calculated as the average percentage of intact radioligand ± SD derived from three independent experiments.
Following the same injection protocol, radioligands were administered in additional groups of mice, but this time animals were euthanized 30 min pi. The urine was immediately collected from the bladder using a prechilled syringe and transferred as before in a prechilled EDTA-containing Eppendorf Protein LoBind® centrifuge tube on ice (40 µL, 50 mM Na2EDTA solution) and 0.1 mL of physiological saline. Urine proteins were precipitated by adding chilled MeCN in a 1/1 v/v ratio followed by a 10 min centrifugation step (15,000× g/4 °C). The supernatant was then collected and treated following the blood sample workup procedure. Aliquots of the Millex-GV filtrate (containing >90% of total urine activity) were analyzed by radio-HPLC, adopting the aforementioned conditions. Results were calculated as the average percentage of intact radioligand ± SD derived from three independent experiments.

[2] = test system: SCID mice bearing twin HEK293-CCK2i4svR and wtHEK293 tumors; assay: Biodistribution in SCID mice bearing twin HEK293-CCK2i4svR and wtHEK293 xenografts; assay type: in vivo
Procedure: Inocula containing a suspension of freshly harvested HEK293-CCK2i4svR/wtHEK293 cells (150 μL, 1.8 × 10^7/1.4 × 10^7 cells, respectively, in normal saline) were subcutaneously (sc) injected in the right and left flanks of male SCID mice (24.5 ± 2.3 g body weight, six weeks of age on arrival day, NCSR “Demokritos” Animal House Facility). Well-palpable tumors (0.42 ± 0.37/0.25 ± […], respectively) were grown at the inoculation site 3–4 weeks later, and biodistribution was conducted. On the day of biodistribution, animals were divided into groups of four and received the radioligand through the tail vein as a bolus (100 μL, containing each of: i. 78–91 kBq [^67Ga]GAS1/2/3 corresponding to 7–17 pmol GAS1/2/3; ii. 74–92 kBq [^111In]GAS1/2/3 corresponding to 20–25 pmol GAS1/2/3; iii. 730 kBq [^177Lu]Lu-GAS1/3 corresponding to 40 pmol GAS1/3, in-vehicle: saline/EtOH 9/1 v/v). Animals were euthanized at predetermined time intervals depending upon the radionuclide applied (for [^67Ga]Ga-GAS1/2/3: 1, 4 and 24 h pi; for [^111In]In-GAS1/2/3: 4 and 24 h pi–two extra groups of mice receiving gelofusine together with [^111In]In-GAS1/2 at 4 and 24 h pi were included; and for [^177Lu]Lu-GAS1/3: 4, 24, 48, 72 and 96 h pi). Mice were dissected, and blood samples, organs of interest and tumors were rapidly collected, weighted and counted in the gamma counter. Biodistribution data was calculated as the percentage of the administered dose per gram tissue (%IA/g) with the aid of suitable standards of the administered dose and the Microsoft Excel program. Results are presented as mean % IA/g values ± SD, n = 4 per time point, as determined by the PRISM^TM 6.0 GraphPad software (San Diego, CA, USA).

[3] = test system: HEK293-CCK2i4svR cells; assay: Radioligand uptake and internalization in HEK293-CCK2i4svR cells; assay type: cell-based, human
Procedure: A day before the experiment, HEK293-CCK2i4svR cells were seeded in six-well plates. The next day, cells were rinsed with ice-cold internalization medium (IM: DMEM Glutamax-I, supplemented by 1% (v/v) FBS) and then the fresh medium was added (1.2 mL) at 37 °C. A further portion of IM (150 µL) was added in the upper well-row, and DG2 solution in IM (150 µL) was added in the lower row (to a final concentration of 1 μM; non-specific series). Each of the test radioligands, [^67Ga]Ga/[^111In]In/[^177Lu]Lu-GAS1/3 and [^67Ga]Ga/[^111In]In-GAS2, was finally added (250 fmol total conjugates in 150 μL 0.5% BSA-PBS) in all the wells and the plates were incubated at for 1 h at 37 °C in an Incubator-Orbital Shaker unit (MPM Instr. SrI, Bernareggio, MI, Italy); [^111In]In-GAS1/2/3 were incubated for 15 min, 30 min, 1 h and 2 h. At the predetermined time points, the plates were placed on ice, the medium was collected, and the plates were rinsed with 0.5% BSA-PBS (1 mL). Cells were subsequently treated with an acid-wash solution (2 × 600 µL; 50 mM glycine buffer pH 2.8, 0.1 M NaCl) and the fractions collected (membrane-bound). After briefly washing with 0.5% BSA-PBS (1 mL), the cells were lysed with 1 N NaOH (2 × 600 µL), and the fractions were collected (internalized). The radioactivity content of collected fractions was counted in the gamma counter, and the percentage of internalized and membrane-bound fractions per time point were calculated with Microsoft Excel. Specific internalized and membrane-bound counts were determined by subtracting the respective non-specific (in the presence of 1 μM DG2) from the respective total counts. Results represent specific internalized/membrane bound ± SD of total added radioactivity per well from three experiments performed in triplicate.

CC(C)(C)C(=O)CN1C(=O)[C@H](NC(=O)Nc2cccc(C(=O)NCCOCCOCCOCCNC(=O)[C@H](CCC(=O)O)NC(=O)CN3CCN(CC(=O)[O-])CCN(CC(=O)[O-])CCN(CC(=O)[O-])CC3)c2)CN(C2CCCCC2)c2ccccc21.[67Ga+3] (stereo in doubt) [[^67Ga]Ga-GAS1]
Intact radioligand in blood ([1]; mice blood collected 5 min pi): 93.9 ± 0.6 (3) %
Intact radioligand in urine ([1]; mice urine collected 30 min pi): 80.2 ± 1.0 (3) %
Biodistribution, Blood ([2]; 1 h pi): 6.53 ± 1.33 %IA/g
Biodistribution, CCK2i4svR(+) Tumor ([2]; 1 h pi): 12.62 ± 1.76 %IA/g
Biodistribution, CCK2i4svR(-) Tumor ([2]; 1 h pi): 1.62 ± 0.12 %IA/g
Biodistribution, Femur ([2]; 1 h pi): 0.97 ± 0.12 %IA/g
Biodistribution, Heart ([2]; 1 h pi): 2.11 ± 0.86 %IA/g
Biodistribution, Intestines ([2]; 1 h pi): 2.33 ± 0.44 %IA/g
Biodistribution, Kidneys ([2]; 1 h pi): 5.78 ± 0.48 %IA/g
Biodistribution, Liver ([2]; 1 h pi): 3.39 ± 0.35 %IA/g
Biodistribution, Lungs ([2]; 1 h pi): 3.63 ± 0.69 %IA/g
Biodistribution, Muscle ([2]; 1 h pi): 0.61 ± 0.07 %IA/g
Biodistribution, Pancreas ([2]; 1 h pi): 2.26 ± 0.18 %IA/g
Biodistribution, Spleen ([2]; 1 h pi): 1.63 ± 0.16 %IA/g
Biodistribution, Stomach ([2]; 1 h pi): 1.09 ± 0.22 %IA/g
Biodistribution, Blood ([2]; 4 h pi): 1.25 ± 0.27 %IA/g
Biodistribution, CCK2i4svR(-) Tumor ([2]; 4 h pi): 0.75 ± 0.19 %IA/g
Biodistribution, Femur ([2]; 4 h pi): 0.29 ± 0.16 %IA/g
Biodistribution, Heart ([2]; 4 h pi): 0.47 ± 0.09 %IA/g
Biodistribution, Intestines ([2]; 4 h pi): 2.84 ± 0.38 %IA/g
Biodistribution, Kidneys ([2]; 4 h pi): 3.59 ± 0.60 %IA/g
Biodistribution, Liver ([2]; 4 h pi): 2.49 ± 0.31 %IA/g
Biodistribution, Lungs ([2]; 4 h pi): 1.19±0.21 %IA/g
Biodistribution, Muscle ([2]; 4 h pi): 0.19±0.07 %IA/g
Biodistribution, Pancreas ([2]; 4 h pi): 0.51 ± 0.09 %IA/g
Biodistribution, Spleen ([2]; 4 h pi): 0.78±0.02 %IA/g
Biodistribution, Stomach ([2]; 4 h pi): 0.37 ± 0.08 %IA/g
Biodistribution, Blood ([2]; 24 h pi): 0.08 ± 0.01 %IA/g
Biodistribution, CCK2i4svR(+) Tumor ([2]; 24 h pi): 2.47 ± 0.41 %IA/g
Biodistribution, CCK2i4svR(-) Tumor ([2]; 24 h pi): 0.00 ± 0.00 %IA/g
Biodistribution, Femur ([2]; 24 h pi): 0.18 ± 0.04 %IA/g
Biodistribution, Heart ([2]; 24 h pi): 0.13 ± 0.01 %IA/g
Biodistribution, Intestines ([2]; 24 h pi): 0.32 ± 0.13 %IA/g
Biodistribution, Kidneys ([2]; 24 h pi): 0.88 ± 0.17 %IA/g
Biodistribution, Liver ([2]; 24 h pi): 0.75 ± 0.08 %IA/g
Biodistribution, Lungs ([2]; 24 h pi): 0.31 ± 0.16 %IA/g
Biodistribution, Muscle ([2]; 24 h pi): 0.05 ± 0.02 %IA/g
Biodistribution, Pancreas ([2]; 24 h pi): 0.22 ± 0.01 %IA/g
Biodistribution, Spleen ([2]; 24 h pi): 0.51 ± 0.12 %IA/g
Biodistribution, Stomach ([2]; 24 h pi): 0.18 ± 0.02 %IA/g
Internalized to membrane-bound ratio [3]: 0.7
Internalized fraction ([3]; 1 h 37 °C, specific): 1.79 ± 0.45 % of total added activity
Cell uptake (internalized + membrane-bound) ([3]; 1 h 37 °C, specific, of total added activity): 4.26 ± 0.99%
